Assay results published in patent US12246021B2, “Compounds for uses in pharmacological induction of HBF for treatment of sickle cell disease and ß-thalassemia” (Academia Sinica, priority 2019, dated 2025).

Key:
BCL11A protein = assay: Western blot of BCL11A protein in primary human erythroid cells; format: cell-based; details: for expression level of BCL11A protein (in words): 3 days, AS-28 at 0.5 μM and 1 μM
Protocol: (§1) Peripheral blood samples were purchased from the Taipei Blood Center. The concentrated blood was diluted 1:5 (V/V) in phosphate-buffered saline (PBS) and distributed in a thin layer on Ficoll-paque PLUS ([…]) (GE Healthcare) in a SepMate column (STEMCELL). After centrifugation at 1200 g for 10 minutes, the cells in the inter-phase region were collected. The collected cells were washed with PBS and centrifuged at low speed three times. The remaining mononuclear cells were expanded in Phase I medium containing 1×SFEM (STEMCELL), 100 ng/ml SCF, 20 ng/ml IL-3, 20 ng/ml IL-6, and 100 ng/ml Flt3-L at 37° C. in an incubator with 5% CO2 for 7 days. The expanded mononuclear cells were further differentiated in Phase II medium containing 1×SFEM (StemSpan), 20 ng/ml SCF, 5 ng/ml IL-3, 1 U/ml EPO for another 7 days. The differentiated erythroid cells were treated with indicated compounds of different dosages with a seeding density of 5×10^5 cells/ml for another 3 days.
After 3 days of treatment, total protein was extracted by modified RIPA (50 mM Tris-HCl pH7.8, 150 mM NaCl, 1% NP-40, 0.5% sodium deoxycholate, 0.1% SDS, 1 mM EGTA, 5 mM EDTA, 10 mM NaF, 1 mM […] and 1× complete EDTA-free Protease Inhibitor Cocktail). 30 μg of protein extracts were separated by 10% SDS-PAGE and the resulting gel was blotted onto PVDF membrane. After blocking with 5% non-fat milk in TBST, the membrane was incubated overnight with primary antibody against BCL11A or β-actin at 4° C. After incubating with horseradish peroxidase-conjugated secondary antibodies and washing the blot, the signals of indicated proteins were visualized by ECL (PerkinElmer) following the manufacturer's protocol.
BCL11A has been reported as a key negative regulator of γ-globin gene expression^23. Knockdown of BCL11A dramatically increases expression of the γ-globin gene. To investigate whether HbF-inducing agents activate γ-globin gene expression by modulating BCL11A protein levels, primary human erythroid cells were treated with known HbF-inducing agents (HU, NaB, and AS-28 (0.5 μM and 1 μM)), and also Compound II, SS-2394, Compound 3, Compound 8, and then harvested for Western blot analysis (FIG. 4; FIG. 11).

γ-globin gene [1] = assay: γ-globin mRNA induction in hydroxyurea-resistant primary human erythroid cells; format: cell-based; details: 0.5 μM, HU-resistant primary human erythroid cells
Protocol: as §1, with “The differentiated erythroid cells were treated with indicated compounds of different dosages with a seeding density of 5×10^5 cells/ml for another 3 days.” left out
After 3 days of compound treatment, total RNA was extracted by a Quick-RNA miniprep kit (Zymo) and reverse-transcription was performed using Maxima H Minus Reverse Transcriptase (ThermoFisher Scientific) according to the manufacturer's instructions. Quantitative PCR was performed on a LightCycler system with SYBR green master mix following the manufacturer's instructions (Roche). The relative quantitative RT-PCR data was normalized to the Cq number of […] and compared to a mock control. […]

γ-globin gene [2] = assay: γ-globin mRNA induction by quantitative RT-PCR in primary human erythroid cell culture; format: cell-based; details: 3 days, primary human erythroid cells
Protocol: as §1, with “The expanded mononuclear cells were further differentiated in Phase II medium containing 1×SFEM (StemSpan), 20 ng/ml SCF, 5 ng/ml IL-3, 1 U/ml EPO for another 7 days. The differentiated erythroid cells were treated with indicated compounds of different dosages with a seeding density of 5×10^5 cells/ml for another 3 days.” left out
(§2) After 3 days of compound treatment, total RNA was extracted by a Quick-RNA miniprep kit (Zymo) and reverse-transcription was performed using Maxima H Minus Reverse Transcriptase (ThermoFisher Scientific) according to the manufacturer's instructions. Quantitative PCR was performed on a LightCycler system with SYBR green master mix following the manufacturer's instructions (Roche). The relative quantitative RT-PCR data was normalized to the Cq number of […] and compared to a mock control.
Compound AS-28 was designed based on the pharmacophore of the HbF-inducing compound TN1 (FIGS. 1A-1B). The efficacy of γ-globin gene induction by AS-28 treatment using a primary human erythroid cell culture system was evaluated. […]

[3] = tested on: human primary erythroid cells; assay: RNA-sequence gene expression profile with Ingenuity Pathways Analysis; format: cell-based; details: human primary erythroid cells treated with AS-28
Protocol: The RNA-sequence data was analyzed by Ingenuity Pathways Analysis (IPA). The top cellular pathways in the primary erythroid cells affected by AS-28 are listed here. DEGs: Fold change ≥1.4, p<0.05.
(§3) In order to examine whether AS-28 would cause cellular toxicity, the gene expression profiles of human primary erythroid cells in culture were compared by RNA-sequence analysis. Several candidate genes, encoding known γ globin gene regulators were selected from the gene list of RNA-sequence data (fold change >1.4) for validation by RT-qPCR (FIG. 7). […] In addition, AS-28 inhibited the expression of γ globin repressor c-MYB (0.5-fold).
To reveal the global effect of AS-28 on human primary erythroid cells, the differentially expressed genes (DEGs) from the RNA-sequence data (fold change ≥1.4 and p<0.05) were selected for analysis by Ingenuity Pathways Analysis (IPA).

in vivo = details: rat
Text: The abbreviations as defined as follows: IV—intravenous; PO—per-os (oral); T1/2—half-life; CL—clearance; Vss—steady-state distribution volume; AUC(0-inf)—area under the curve; F—bioavailability; ND—not detected.

NFE2L2 = assay: RT-qPCR of γ-globin transcription regulators in human primary erythroid cells: NFE2L2; format: cell-based; details: AS-28 0.5 μM
Protocol: (§4) The total RNAs were isolated from human primary erythroid cells in culture without (Mock) and with (AS-28) treatment by AS-28, and analyzed by RT-qPCR. N=4 biological experiments, *, p<0.05; ***, p<0.001.
as §2, §3

c-MYB = assay: RT-qPCR of γ-globin transcription regulators in human primary erythroid cells: c-MYB; format: cell-based; details: AS-28 0.5 μM
Protocol: as §4, §2, §3

[4] = Solubility of the compounds; format: physicochemical
[5] = tested on: primary human erythroid cells; assay: Cell viability assay (AlamarBlue) in primary human erythroid cell culture; format: cell-based; details: 3 days
Protocol: as §1, with “The differentiated erythroid cells were treated with indicated compounds of different dosages with a seeding density of 5×10^5 cells/ml for another 3 days.” left out
Cell viability was assessed using AlamarBlue reagent (Invitrogen). […] Cell viability was evaluated using a multi-label counter (Ex 530-560 nm, Em 590 nm) (PerkinElmer).
Compound AS-28 was designed based on the pharmacophore of the HbF-inducing compound TN1 (FIGS. 1A-1B). The efficacy of γ-globin gene induction by AS-28 treatment using a primary human erythroid cell culture system was evaluated. After two weeks of in vitro erythroid cell differentiation, cells were treated with AS-28 for three days and then harvested for quantitative RT-PCR analysis and cell viability assay.

GATA1 = assay: RT-qPCR of γ-globin transcription regulators in human primary erythroid cells: GATA1; format: cell-based; details: AS-28 0.5 μM
Protocol: as §4, §2, §3

SCD mice = assay: Oral AS-28 in SCD mice: blood count, HbF HPLC, F-cells, blood smear; format: in vivo; details: 50, 75 or 100 mg/kg oral gavage twice per day, 5 days per week, 4 weeks
Protocol: Sickle cell disease mice (B6; 129-Hba^tm1(HBA)Tow, Hbb^tm2(HBG1,HBB*)Tow/J) were purchased from Jackson Laboratory and were bred at the AS Core, Academia Sinica. Mice of 6-8 weeks old were used for experiments. Treatment groups received vehicle [20% (2-Hydroxypropyl)-β-cyclodextrin] plus AS-28 (50 mg/kg, 75 mg/kg or 100 mg/kg), which was administered by oral gavage twice per day, 5 days per week, for 4 weeks.
Blood was collected by submandibular blood collection and analysis was performed using a ProCyte Dx automatic analyzer.
10 μl of whole blood was washed twice with PBS and then fixed with 0.05% glutaraldehyde for 10 minutes. After fixation, the cells were washed twice with PBS and then permeabilized by adding cold 0.1% Triton X-100 for 5 minutes. Cells were washed twice with 0.1% BSA/PBS and stained with PE-HbF antibody (BD) for 40 minutes at room temperature (with protection from light). Finally, the cells were washed three times with 0.1% BSA/PBS and passed through a […] cell strainer (Falcon). F-cell % was analyzed by flow cytometry (LSRII-18P, BD).
50 μl of whole blood was lysed in 200 μl ddH2O and centrifuged for 5 minutes at 13,000 rpm to extract the hemolysate. HPLC was performed according to a previously described protocol^22.
For hypoxia treatment, whole blood was incubated in a hypoxic incubator chamber (3% 02) for 30 minutes. […] of whole blood (with or without hypoxia) was used to make blood smears on slides. Slides were air-dried and then stained with Liu-stain before quantifying the percentage of sickle-shaped cells.
To further evaluate the therapeutic potential of AS-28 for treating hemoglobinopathies, SCD mice (an SCD disease animal model generated by the laboratory of Prof. Tim Townes, University of Alabama) were used to examine whether AS-28 treatment could relieve anemia in SCD mice. Different dosages of AS-28 were administered to 6-8 week-old SCD mice over four weeks. After four weeks of oral gavage, blood samples from the treated SCD mice were collected for several biochemical analyses (FIG. 5). […] Reticulocyte (RET), white blood cell (WBC) and neutrophil (NEUT) values were equivalent between AS-28-treated and mock-treated SCD mice. […] A diagnostic indicator of SCD is the characteristic sickle-shaped morphology of red blood cells under hypoxia.

[6] = tested on: HU-resistant primary human erythroid cells; assay: Cell viability in hydroxyurea-resistant primary human erythroid cells; format: cell-based; details: 0.5 μM
Protocol: as §1
Cell viability was assessed using AlamarBlue reagent (Invitrogen). After 3 days of treatment, 100 μl of treated cell culture was transferred into a 96-well plate and 1/10 volume of AlamarBlue reagent was added and the cell culture was incubated overnight at 37° C. Cell viability was evaluated using a multi-label counter (Ex 530-560 nm, Em 590 nm) (PerkinElmer). […]

For `CCCC(=O)[O-].[Na+]` [NaB, sodium butyrate, reference compound], the “expression level of BCL11A protein (in words)” value (BCL11A protein) was “significantly decreased”.
With `CCN1CCN(c2nc(Nc3cccc(NC(=O)C#Cc4ccc(C)cc4)c3)c3ncn(CC)c3n2)CC1` [AS-28, 3-p-Tolyl-propynoic acid {3-[9-ethyl-2-(4-ethylpiperazin-1-yl)-9H-purin-6-ylamino]phenyl}amide] the “γ-globin mRNA expression elevation” value (γ-globin gene [1]) was “at least 2 fold”, the “γ-globin mRNA expression activation” value (γ-globin gene [2]; 0.5 μM) was 3.5 fold and the γ-globin induction (γ-globin gene [2]; 1 μM and 2 μM) was “reduced”. For the same molecule, the “top 5 canonical pathways affected (IPA of DEGs, fold change ≥1.4, p<0.05)” value [3] was “does not include the cell toxicity-related pathways”, the bioavailability (in vivo) was roughly 25% and the “NFE2L2 expression (γ globin activator), RT-qPCR vs mock” value (NFE2L2) was 1.5 fold. The “c-MYB expression (γ globin repressor), RT-qPCR vs mock” value (c-MYB) was 0.5 fold, the water solubility [4] was “improved” and the “expression level of BCL11A protein (in words)” value (BCL11A protein) was “significantly decreased”. For the same molecule, the “reduction of BCL11A protein levels” value (BCL11A protein; FIG. 4) was 50%, the “reduction of BCL11A protein levels” value (BCL11A protein; FIG. 11) was 60% and the cytotoxicity ([5]; 0.5 μM) was “without inducing significant cytotoxicity”. The cytotoxicity ([5]; 1 μM and 2 μM) was “cell cytotoxicity”, the “GATA1 expression (γ globin activator), RT-qPCR vs mock” value (GATA1) was 1.5 fold and the “hemoglobin levels (HGB) vs mock-treated control” value (SCD mice) was “slightly increased”. For the same molecule, the “neutrophil (NEUT) values vs mock-treated” value (SCD mice) was “equivalent”, the “percentage of F-cells (flow cytometry)” value (SCD mice) was “elevated” and the “percentage of HbF (HPLC)” value (SCD mice) was “significantly increased”. For the same molecule, the “percentage of sickle-shaped cells in blood smears under hypoxia” value (SCD mice) was “significantly decreased”, the “red blood cell (RBC) numbers vs mock-treated control” value (SCD mice) was “slightly increased” and the “reticulocyte (RET) values vs mock-treated” value (SCD mice) was “equivalent”. For the same molecule, the “white blood cell (WBC) values vs mock-treated” value (SCD mice) was “equivalent” and the cytotoxicity [6] was “only minor cytotoxicity”.
